Experimental data from patent US10947251B2, “Therapeutic compounds and methods of use thereof” (GENENTECH, INC., priority 2018, dated 2021).
pIC50: −log10 of the molar value.

Columns and labels:
[1] = biological target: T1, hNav1.7 (Homo sapiens (Human), UniProt Q15858); assay: Tritiated compound binding to membranes from cells heterologously expressing hNav1.7 and the β1 subunit (LBA); conditions: competitive binding vs [3H]compound, membranes with hNav1.7 and β1 subunit; read-out: Nav1.7 LBA EVO IC50
Description: Example 39A. Tritiated Compound Binding to Membranes Isolated from Cells that Heterologously Express hNav1.7 and the β1 Subunit
Preparation of membranes containing recombinantly expressed sodium channels: Frozen recombinant cell pellets were thawed on ice and diluted to 4 times the cell pellet weight with ice cold 50 mM Tris HCl, pH 7.4 buffer. The cell suspensions were homogenized on ice using a motorized glass dounce homogeniser. Homogenates were further diluted 8.4 times with ice cold 50 mM Tris HCl, pH 7.4 buffer and then centrifuged at 200×g at 4° C. for 15 min. The supernatants were collected and centrifuged at 10000×g at 4° C. for 50 min. The pellets were then re-suspended in 100 mM NaCl, 20 mM Tris HCl, pH 7.4 buffer containing 1% v/v protease inhibitors (Calbiochem) and re-homogenized on ice. The homogenized membranes were then processed through a syringe equipped with a 26 gauge needle. Protein concentrations were determined by Bradford Assay and the membranes were stored at −80° C.
Saturation experiments. A competitive NaV1.7 inhibitor having a methyl group was tritiated. Three tritiums were incorporated in place of methyl hydrogens to generate [^3H]compound. Binding of this radioligand was performed in 5 mL borosilicate glass test tubes at room temperature. Binding was initiated by adding membranes to increasing concentrations of [^3H]compound in 100 mM NaCl, 20 mM Tris HCl, pH 7.4 buffer containing 0.01% w/v bovine serum albumin (BSA) for 18 h. Non-specific binding was determined in the presence of 1 μM unlabeled compound. After 18 h, the reactants were filtered through GF/C glass fiber filters presoaked in 0.5% w/v polyethylene imine. Filters were washed with 15 mL ice cold 100 mM NaCl, 20 mM Tris HCl, pH7.4 buffer containing 0.25% BSA to separate bound from free ligand. [^3H]compound bound to filters was quantified by liquid scintillation counting.
Binding reactions were performed in 96-well polypropylene plates at room temperature for 18 h. In 360 μL, membranes were incubated with 100 pM [^3H]compound and increasing concentrations of Test Compound. Non-specific binding was defined in the presence of 1 μM unlabeled compound. Reactions were transferred and filtered through 96-well glass fiber/C filter plates presoaked with 0.5% polyethylene imine. The filtered reactions were washed 5 times with 200 μL ice cold buffer containing 0.25% BSA. Bound radioactivity was determined by liquid scintillation counting.
For saturation experiments, non-specific binding was subtracted from total binding to provide specific binding and these values were recalculated in terms of pmol ligand bound per mg protein. Saturation curves were constructed and dissociation constants were calculated using the single site ligand binding model: Beq=(Bmax*X)/(X+Kd), where Beq is the amount of ligand bound at equilibrium, Bmax is the maximum receptor density, Kd is the dissociation constant for the ligand, and X is the free ligand concentration. For competition studies percent inhibition was determined and IC50 values were calculated using a 4 parameter logistic model (% inhibition=(A+((B−A)/(1+((x/C)^D)))) using XLfit, where A and B are the maximal and minimum inhibition respectively, C is the IC50 concentration and D is the (Hill) slope.
Example 39B. Tritiated Compound Binding to Membranes Isolated from Cells that Heterologous Express hNav1.7 and the β1 Subunit
Following the procedure described in Example 39A, and making modifications as required to: centrifuge supernatants at 100000×g instead of 10000×g; re-suspend pellets in a buffer containing 0.01% BSA in addition to 100 mM NaCl, 20 mM Tris HCl, pH 7.4 buffer, and 1% v/v […]; and storing membranes at −80° C. in single use aliquots instead of pooled.
Saturation experiments: Following the procedure described in Example 243A, and making modifications as required to incubate [3H]compound for 3 hours instead of 18 hours. […]

[2] = biological target: T1, hNav1.7; assay: Electrophysiological assay (EP), voltage clamp on Syncropatch 384PE; type: cell-based; conditions: CHO cells expressing Nav1.7, holding potential −50 mV, 7.5 min compound incubation; read-out: EP_SP hNav1.7 EVO IC50
From the text: Example 39C. Electrophysiological Assay (EP) (In Vitro Assay)
Patch voltage clamp electrophysiology allows for the direct measurement and quantification of block of voltage-gated sodium channels (NaV's), and allows the determination of the time- and voltage-dependence of block which has been interpreted as differential binding to the resting, open, and inactivated states of the sodium channel (Hille, B., Journal of General Physiology (1977), 69: 497-515).
The following voltage clamp electrophysiology studies were performed on representative compounds using cells heterologously expressing Nav1.7 or Nav1.5 channels. cDNAs for Nav1.7 (NM_002977) and Nav1.5 (AC137587) were stably expressed in Chinese Hamstr Ovary (CHO) cells and CHL (Chinese Hamster Lung) cells respectively. Sodium currents were measured in the whole-cell configuration using Syncropatch 384PE (Nanlon Technologies, Germany). 1NPC®-384 chips with custom medium resistance and single hole mode are used. Internal solution consists of (in mM): 110 […], 10 CsCl, 20 EGTA, and 10 Hepes (pH adjusted to 7.2); and external solution contains (in mM): 60 NMDG, 80 NaCl, 4 KCl, 1 MgCl2, 2 CaCl2, 2 D-Glucose monohydrate, 10 Hepes (pH adjusted to 7.4 with NaOH).
After system flushing, testing compounds are dissolved in external solution containing 0.1% Pluronic F-127. The chip is moved into the measuring head and the instrument primes the chip with external and internal solutions. 10 l cells are added to the chip from a cell hotel, and a negative pressure of −50 mBar is applied to form a seal. Following treatment with seal enhancer solution and wash-off with external solution, negative pressure of −250 mbar is applied for 1 second to achieve the whole-cell configuration, followed by three washing steps in external solution. 20 µl of compounds is added to 40 µl in each well (1:3 dilution of compounds), and after mixing, 20 l is removed so the volume is retained at 40 ul. After approximately 13 minutes recordings, 20 µl/well of 2 uM TTX, or 333 uM Tetracaine (for Nav1.5) is added to achieve full block.
For voltage protocol, an holding potential of −50 mV is applied during the whole experiment. A depolarizing step is applied to −10 mV for 10 ms, followed by a hyperpolarization step to −150 mV for 20 ms to allow channel recovery from inactivation. A second depolarizing step is applied from −150 mV to −10 mV for 10 ms, where currents were measured to derive blocking effects of compounds. Inhibition is determined based on 7.5 min of compound incubation.

| Structure (SMILES) | pIC50 [1] | pIC50 [2] |
| --- | --- | --- |
| COc1cc(-c2cccc(C(F)(F)F)c2)c(F)cc1N1C(=O)CC[C@H]2CN(S(=O)(=O)Nc3ccon3)CCC21 (stereo in doubt) [Example 36, (4aS,8aS)-1-(2-fluoro-5-methoxy-3′-(trifluoromethyl)-[1,1′-biphenyl]-4-yl)-N-(isoxazol-3-yl)-2-oxooctahydro-1,6-naphthyridine-6(2H)-sulfonamide] | 7.68 | 8.66 |
| COc1cc(-c2cccc(C(F)(F)F)c2)c(F)cc1N1C(=O)CC[C@H]2CN(S(=O)(=O)Nc3ccon3)CCC21 (stereo in doubt) [Example 37, (4aS,8aR)-1-(2-fluoro-5-methoxy-3′-(trifluoromethyl)-[1,1′-biphenyl]-4-yl)-N-(isoxazol-3-yl)-2-oxooctahydro-1,6-naphthyridine-6(2H)-sulfonamide] | 6.12 | 7.89 |
| COc1cc(-c2ccc(F)c(C(F)(F)F)c2)c(F)cc1N1C(=O)CO[C@@H]2CN(S(=O)(=O)Nc3ccon3)CC[C@H]21 [Example 1, (4aR,8aR)-1-(2,4′-difluoro-5-methoxy-3′-(trifluoromethyl)-[1,1′-biphenyl]-4-yl)-N-(isoxazol-3-yl)-2-oxohexahydro-1H-pyrido[3,4-b][1,4]oxazine-6(7H)-sulfonamide] | 7.35 | 8.95 |
| COc1cc(-c2ccc(F)c(C(F)(F)F)c2)c(F)cc1N1C(=O)CO[C@H]2CN(S(=O)(=O)Nc3ccon3)CC[C@@H]21 [Example 2, (4aS,8aS)-1-(2,4′-difluoro-5-methoxy-3′-(trifluoromethyl)-[1,1′-biphenyl]-4-yl)-N-(isoxazol-3-yl)-2-oxohexahydro-1H-pyrido[3,4-b][1,4]oxazine-6(7H)-sulfonamide] | 7.42 | 9.04 |
| COc1cc(-c2cccc(C(F)(F)F)c2)c(F)cc1N1C(=O)CO[C@@H]2CN(S(=O)(=O)Nc3ccon3)CC[C@H]21 [Example 3, (4aR,8aR)-1-(2-fluoro-5-methoxy-3′-(trifluoromethyl)-[1,1′-biphenyl]-4-yl)-N-(isoxazol-3-yl)-2-oxohexahydro-1H-pyrido[3,4-b][1,4]oxazine-6(7H)-sulfonamide] | 7.17 | 8.65 |
| COc1cc(-c2cccc(C(F)(F)F)c2)c(F)cc1N1C(=O)CO[C@H]2CN(S(=O)(=O)Nc3ccon3)CC[C@@H]21 [Example 4, (4aS,8aS)-1-(2-fluoro-5-methoxy-3′-(trifluoromethyl)-[1,1′-biphenyl]-4-yl)-N-(isoxazol-3-yl)-2-oxohexahydro-1H-pyrido[3,4-b][1,4]oxazine-6(7H)-sulfonamide] | 7.22 | 8.45 |
| COc1cc(-c2cc(F)cc(C(F)(F)F)c2)c(F)cc1N1C(=O)CO[C@@H]2CN(S(=O)(=O)Nc3ccon3)CC[C@H]21 [Example 5, (4aR,8aR)-1-(2,3′-difluoro-5-methoxy-5′-(trifluoromethyl)-[1,1′-biphenyl]-4-yl)-N-(isoxazol-3-yl)-2-oxohexahydro-1H-pyrido[3,4-b][1,4]oxazine-6(7H)-sulfonamide] | 7.10 | 8.55 |
| COc1cc(-c2cc(F)cc(C(F)(F)F)c2)c(F)cc1N1C(=O)CO[C@H]2CN(S(=O)(=O)Nc3ccon3)CC[C@@H]21 [Example 6, (4aS,8aS)-1-(2,3′-difluoro-5-methoxy-5′-(trifluoromethyl)-[1,1′-biphenyl]-4-yl)-N-(isoxazol-3-yl)-2-oxohexahydro-1H-pyrido[3,4-b][1,4]oxazine-6(7H)-sulfonamide] | 7.28 | 8.74 |
| COc1cc(-c2cc(C(F)(F)F)ccc2F)c(F)cc1N1C(=O)CO[C@@H]2CN(S(=O)(=O)Nc3ccon3)CC[C@H]21 [Example 7, (4aR,8aR)-1-(2,2′-difluoro-5-methoxy-5′-(trifluoromethyl)-[1,1′-biphenyl]-4-yl)-N-(isoxazol-3-yl)-2-oxohexahydro-1H-pyrido[3,4-b][1,4]oxazine-6(7H)-sulfonamide] | 6.78 | 8.24 |
| COc1cc(-c2cc(C(F)(F)F)ccc2F)c(F)cc1N1C(=O)CO[C@H]2CN(S(=O)(=O)Nc3ccon3)CC[C@@H]21 [Example 8, (4aS,8aS)-1-(2,2′-difluoro-5-methoxy-5′-(trifluoromethyl)-[1,1′-biphenyl]-4-yl)-N-(isoxazol-3-yl)-2-oxohexahydro-1H-pyrido[3,4-b][1,4]oxazine-6(7H)-sulfonamide] | 7.08 | 8.31 |
| COc1cc(-c2cccc(F)c2)c(F)cc1N1C(=O)CO[C@@H]2CN(S(=O)(=O)Nc3ccon3)CC[C@H]21 [Example 9, (4aR,8aR)-1-(2,3′-difluoro-5-methoxy-[1,1′-biphenyl]-4-yl)-N-(isoxazol-3-yl)-2-oxohexahydro-1H-pyrido[3,4-b][1,4]oxazine-6(7H)-sulfonamide] | 5.70 | 7.71 |
| COc1cc(-c2cccc(F)c2)c(F)cc1N1C(=O)CO[C@H]2CN(S(=O)(=O)Nc3ccon3)CC[C@@H]21 [Example 10, (4aS,8aS)-1-(2,3′-difluoro-5-methoxy-[1,1′-biphenyl]-4-yl)-N-(isoxazol-3-yl)-2-oxohexahydro-1H-pyrido[3,4-b][1,4]oxazine-6(7H)-sulfonamide] | 6.15 | 7.32 |
| COc1cc(-c2cccc(C(F)(F)F)c2F)c(F)cc1N1C(=O)CO[C@@H]2CN(S(=O)(=O)Nc3ccon3)CC[C@H]21 [Example 11, (4aR,8aR)-1-(2,2′-difluoro-5-methoxy-3′-(trifluoromethyl)-[1,1′-biphenyl]-4-yl)-N-(isoxazol-3-yl)-2-oxohexahydro-1H-pyrido[3,4-b][1,4]oxazine-6(7H)-sulfonamide] | 6.64 | 7.95 |
